From patent US20250325529A1, “INHIBITORS OF FATTY ACID BINDING PROTEINS (FABPs), METHODS OF USE AND METHODS OF MAKING” (Celloram, inc., priority 2024, published 2025)
Entries after “also recorded” stand apart in the source; their conditions may differ.

How the values were obtained:
FABP5 = FABP5 (Homo sapiens (Human), UniProt Q01469); experiment: Fluorescence (ANS) competition binding assay, FABP5; details: ANS displacement
Protocol: (§1) This example illustrates a two-step fluorescence binding assay study used to determine the binding affinity of the various inhibitor compounds disclosed herein with the various FABPs: FABP3, FABP4, FABP5 and FABP7. Further secondary screening studies were carried out for compounds with high binding affinities toward the FABPs and based on their ability to activate the nuclear receptors PPARα, PPARγ, or PPARδ.
(§2) Binding assays for FABP3, FABP4, FABP5 and FABP7 were carried out by fluorescence titrations. His-tagged FABPs were bacterially expressed in E. coli, purified using Ni Sepharose beads, and the equilibrium dissociation constants (Kd) that characterize their interactions with different inhibitor compounds were measured by fluorescence competition assays. The method entails two steps as described in e.g., Lin, Q. et al., “Ligand selectivity of the peroxisome proliferator-activated receptor alpha,” Biochemistry 38, 185-190, doi:10.1021/bi9816094 [pii](1999). In the first step, Kd for the association of the protein with the fluorescent fatty acid probe ANS was measured. Protein (2 μM) was titrated with ANS from a concentrated solution in DMSO. Ligand binding was monitored by following the increase in the fluorescence of the ligand upon binding to the protein, and Kd for the association of ANS with the each FABP was computed from titration curves as described in e.g., Norris, A. W. & Li, E., “Fluorometric titration of the CRABPs,” Methods Mol Biol 89, 123-139 (1998)). In the second step, Kds for binding of non-fluorescent ligands were measured by monitoring their ability to displace ANS in the binding pocket of the protein. Each FABP was precomplexed with ANS at 1:1 molar ratio and titrated with the different compounds whose binding was reflected by a decrease in probe fluorescence. Kds were extracted from the EC50 of the competition curve and the measured Kd for ANS.

FABP3 = FABP3 (Homo sapiens (Human), UniProt P05413); experiment: Fluorescence (ANS) competition binding assay, FABP3; details: ANS displacement
Chain of FABP3 (P05413 whole entry, species assumed): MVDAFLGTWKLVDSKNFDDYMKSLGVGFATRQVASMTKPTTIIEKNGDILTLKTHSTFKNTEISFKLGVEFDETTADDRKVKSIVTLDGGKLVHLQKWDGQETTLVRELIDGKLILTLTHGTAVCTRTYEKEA
Protocol: as §1, §2

PPARγ = PPARγ (Homo sapiens (Human), UniProt P37231); experiment: Transcriptional activation assay in COS7 cells, PPARγ; assay type: cell-based; details: PPRE luciferase reporter, PD151 and PD152 at 10 μM
Chain of PPARγ (P37231 whole entry, species assumed): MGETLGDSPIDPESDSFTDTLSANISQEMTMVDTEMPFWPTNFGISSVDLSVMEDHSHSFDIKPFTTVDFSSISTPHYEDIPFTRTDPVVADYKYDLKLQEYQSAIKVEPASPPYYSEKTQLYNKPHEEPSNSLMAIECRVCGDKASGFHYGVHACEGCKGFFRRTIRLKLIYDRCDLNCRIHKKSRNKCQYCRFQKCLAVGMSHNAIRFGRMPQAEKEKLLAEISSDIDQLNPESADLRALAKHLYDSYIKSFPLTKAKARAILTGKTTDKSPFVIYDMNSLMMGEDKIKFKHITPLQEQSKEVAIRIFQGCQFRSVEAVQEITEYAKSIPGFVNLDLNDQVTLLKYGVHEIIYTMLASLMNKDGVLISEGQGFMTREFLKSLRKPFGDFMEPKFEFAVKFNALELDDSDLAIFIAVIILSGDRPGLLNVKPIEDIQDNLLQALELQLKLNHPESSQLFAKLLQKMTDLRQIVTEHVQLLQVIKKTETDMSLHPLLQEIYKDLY
Protocol: (§3) COS-7 were cultured in 6-well plates and co-transfected with either a luciferase reporter driven by 3 copies of a PPRE and expression vector for either PPARδ, PPARα or PPARγ together with a vector harboring cDNA for β-galactosidase, serving as a transfection control. To test whether FABP4 or FABP5 mediate activation of their cognate receptors PPARγ and PPARδ, respectively, cells were also co-transfected with a plasmid harboring sequence of either FABP4 or FABP5. 18 h post-transfection, cells were placed in a serum-free medium and treated with agonist/compound. 18 h. later, cells were lysed, luciferase activity was assayed (Promega, WI, USA) and corrected for transfection efficiency by the activity of β-galactosidase.
(§4) Transcriptional activation assays were carried out utilizing COS7 cells as described above.

PPARδ = PPARδ (Homo sapiens (Human), UniProt Q03181); experiment: Transcriptional activation assay in COS7 cells, PPARδ; assay type: cell-based; details: PPRE luciferase reporter, PD151 and PD152 at 10 μM
Chain of PPARδ (Q03181 whole entry, species assumed): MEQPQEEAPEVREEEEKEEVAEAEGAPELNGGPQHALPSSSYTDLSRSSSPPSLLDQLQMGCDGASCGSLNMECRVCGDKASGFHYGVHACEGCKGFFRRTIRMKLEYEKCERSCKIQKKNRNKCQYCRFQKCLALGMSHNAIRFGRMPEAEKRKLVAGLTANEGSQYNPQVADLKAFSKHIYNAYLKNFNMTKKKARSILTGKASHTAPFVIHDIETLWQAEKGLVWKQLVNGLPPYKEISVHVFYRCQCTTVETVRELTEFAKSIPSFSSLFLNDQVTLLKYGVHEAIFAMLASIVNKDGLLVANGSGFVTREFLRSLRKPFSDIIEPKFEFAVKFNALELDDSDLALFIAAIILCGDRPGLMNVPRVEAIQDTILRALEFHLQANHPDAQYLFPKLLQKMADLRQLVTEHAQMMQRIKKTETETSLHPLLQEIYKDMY
Protocol: as §3, §4

[1] = tested on: Salmonella typhimurium tester strain TA98; experiment: Ames test (Bacterial Reverse Mutation Test), TA98; assay type: cell-based
Protocol: PD152 (compound 2) was tested for genotoxic and cytotoxic side effects by Ames test. The Ames test is a Bacterial Reverse Mutation Test of mutagenicity that utilizes Salmonella typhimurium tester strains TA98, TA100, TA1535, TA1537 and Escherichia coli tester strain WP2 uvrA (pKM101), both in the presence and absence of S9.
The compound PD152 was tested at 10 concentrations (0.032-1000 μg/plate) in the presence of, or absence of, the hepatic enzyme S9.
The aniline FABP4/5 inhibitor compound, 2-((2-((2,4-dichloro-5-isopropoxyphenyl)amino)-2-oxoethyl)thio)-2-methylpropanoic acid (compound “B104” as disclosed in WO2023043803A1) also was tested for genotoxic and cytotoxic side effects by Ames test. […]

[2] = tested on: NOD mouse model of autoimmune type 1 diabetes; experiment: NOD mouse model of autoimmune type 1 diabetes; assay type: in vivo, NOD/ShiLtJ mice; details: female NOD mice
Protocol: Female NOD/ShiLtJ mice were purchased from Jackson's lab at age of 7 weeks. Mice were housed in a temperature-controlled facility (23° C., 12-h light/dark cycle). Weekly non-fasting blood glucose concentrations were measured in the morning by tail vein prick starting at 8 weeks of age by using a blood glucose test meter (OTUltra2 system, Lifescam, USA) and strips according to manufacturer's instruction. Any reading of blood glucose higher than 200 mg/dL was confirmed by another test 24 hours later. Diabetes was diagnosed by 2 consensus positive blood glucose tests higher than 200 mg/dL. At 13 weeks of age, mice were divided into 3 treatments groups (n=15/group) as followed: 1) control group, treated with vehicle (0.5% methyl cellulose, 1% Tween 80); 2) PD152 treated group (40 mg/Kg in vehicle); 3) anti-CD3 treated group (5 μg/mouse, in PBS). Groups 1 and 2 were treated by gavage 5 days a week throughout the duration of the experiment. Group 3 was treated by IV injection for only 5 consecutive days. Mice were sacrificed at the age of 27 weeks.
NOD mouse model of autoimmune type 1 diabetes was used to test the efficacy of FABP4/5 inhibitor PD152 on spontaneous development of the disease. […] Blood glucose levels were measured weekly for monitoring the incidence of diabetes until termination at 27 weeks of age. […]

[3] = TA98, presence of S9, 0.0312 μg/plate
[4] = TA98, presence of S9, 0.1 μg/plate
[5] = TA98, presence of S9, 0.316 μg/plate
[6] = TA98, presence of S9, 1 μg/plate
[7] = TA98, presence of S9, 3.16 μg/plate
[8] = TA98, presence of S9, 10 μg/plate
[9] = TA98, presence of S9, 31.6 μg/plate
[10] = TA98, presence of S9, 100 μg/plate
[11] = TA98, presence of S9, 316 μg/plate
[12] = TA98, presence of S9, 1000 μg/plate

Chain of FABP5 (Q01469 whole entry, species assumed): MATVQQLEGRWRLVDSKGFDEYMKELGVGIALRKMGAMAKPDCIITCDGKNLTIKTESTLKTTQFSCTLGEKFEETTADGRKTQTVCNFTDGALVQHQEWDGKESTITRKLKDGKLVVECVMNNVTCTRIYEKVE

For CC(C)Oc1nc(NC(=O)CSCC(=O)O)c(Cl)cc1Cl [PD152, 2-((2-((3,5-dichloro-6-isopropoxypyridin-2-yl)amino)-2-oxoethyl)thio)acetic acid], the Kd (FABP5) was 0.028 µM, the Kd (FABP3) was 0.188 µM and the “Activation of transcription by PPARγ” value (PPARγ) was “None of these tested compounds activated; also recorded: none of the tested compounds PD151 and PD152 activated transcription”. The “Activation of transcription by PPARδ” value (PPARδ) was “None of these tested compounds activated; also recorded: none of the tested compounds PD151 and PD152 activated transcription”, the Fold increase [1, 3] was 1 and the “Mean number of revertants” value [1, 3] was 6. The Fold increase [1, 4] was 1, the “Mean number of revertants” value [1, 4] was 5 and the Fold increase [1, 5] was 1. For the same molecule, the “Mean number of revertants” value [1, 5] was 6, the Fold increase [1, 6] was 1 and the “Mean number of revertants” value [1, 6] was 6. For the same molecule, the Fold increase [1, 7] was 1, the “Mean number of revertants” value [1, 7] was 6 and the Fold increase [1, 8] was 1. For the same molecule, the “Mean number of revertants” value [1, 8] was 6, the Fold increase [1, 9] was 1 and the “Mean number of revertants” value [1, 9] was 6. The Fold increase [1, 10] was 1, the “Mean number of revertants” value [1, 10] was 6 and the Fold increase [1, 11] was 1. The “Mean number of revertants” value [1, 11] was 6, the Fold increase [1, 12] was 1 and the “Mean number of revertants” value [1, 12] was 5. For the same molecule, the Diabetes incidence ([2]; 40 mg/Kg by gavage 5 days a week from 13 weeks, by 27 weeks of age) was 46.7% and the “Lower blood glucose levels, difference to control” value ([2]; at 27 weeks of age) was “about 2 fold”.
